Laboratory results published in ChEMBL document CHEMBL5729033, “Macrocyclic compounds that inhibit MCL-1 protein” (2022).

Target: Induced myeloid leukemia cell differentiation protein Mcl-1/Bcl-2-like protein 11 (Homo sapiens, UniProt Q07820)
Test: Cell Free Mcl-1:Bim Affinity Assay (Mcl-1 HTRF): The inhibition of the Mcl-1/Bim interaction was measured using a time-resolved fluorescence resonance energy transfer (TR-FRET) assay. The recombinant human Mcl-1 (C-terminally 6×His tagged Mcl-1 containing residues 171-327) was generated at Amgen Inc (Thousand Oaks, Calif.). A biotinylated peptide derived from human Bim (residues 51-76) was purchased from CPC Scientific (San Jose, Calif.). The TR-FRET assay was conducted in a 384-well white OptiPlate™ (PerkinElmer, Waltham, Mass.) in a total volume of 40 μL. The reaction mixture contained 0.1 nM Mcl-1(171-327), 0.05 nM biotin-Bim(51-76), 0.05 nM LANCES Eu-W1024 Anti-6×His (PerkinElmer), 0.072 nM Streptavidin-Xlent (Cisbio, Bedford, Mass.), and serially diluted test compounds in the binding buffer of 20 mM Hepes, pH 7.5, 150 mM NaCl, 0.016 mM Brij®35, and 1 mM dithiothreitol. Test compounds were pre-incubated with Mcl-1(171-327) and biotin-Bim (51-76) for 60 min before addition of the detection mixture (LANCE® Eu-W1024 Anti-6×His and Streptavidin-Xlent). The reaction plates were further incubated overnight and then were read on an Envision® multimode reader (PerkinElmer). Fluorescence signals were measured at 620 nm (40-nm bandwidth) and 665 nm (7.5-nm bandwidth) with a 60 μs delay after excitation at 320 nm (75-nm bandwidth). […]
Format: protein assay

Induced myeloid leukemia cell differentiation protein Mcl-1/Bcl-2-like protein 11, sequence (Q07820 whole entry, the tested form may be a part): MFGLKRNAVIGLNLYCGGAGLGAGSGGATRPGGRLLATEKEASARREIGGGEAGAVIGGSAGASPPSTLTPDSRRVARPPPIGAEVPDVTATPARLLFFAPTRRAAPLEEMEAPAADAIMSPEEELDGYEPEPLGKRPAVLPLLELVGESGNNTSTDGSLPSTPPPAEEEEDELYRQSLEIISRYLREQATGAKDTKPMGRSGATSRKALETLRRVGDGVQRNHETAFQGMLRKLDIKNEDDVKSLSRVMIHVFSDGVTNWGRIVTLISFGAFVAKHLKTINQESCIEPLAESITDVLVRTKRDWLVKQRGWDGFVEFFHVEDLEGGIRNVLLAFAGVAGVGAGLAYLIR
Induced myeloid leukemia cell differentiation protein Mcl-1/Bcl-2-like protein 11, sequence (O43521 whole entry, further chain, the tested form may be a part): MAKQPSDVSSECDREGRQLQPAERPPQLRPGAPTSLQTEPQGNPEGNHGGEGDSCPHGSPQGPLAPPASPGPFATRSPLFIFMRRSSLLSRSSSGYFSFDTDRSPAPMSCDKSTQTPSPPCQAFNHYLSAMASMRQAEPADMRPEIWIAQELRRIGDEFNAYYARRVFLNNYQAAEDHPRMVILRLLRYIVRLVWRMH

IC50 [nM] | Structure (SMILES)
1.42 | C[C@@H]1[C@@H](C)CCC[C@H](CN2CCN3CCN(C(=O)OC(C)(C)C)C[C@@H]3C2)[C@@H]2CC[C@H]2CN2C[C@@]3(CCCc4cc(Cl)ccc43)COc3ccc(cc32)C(=O)NS1(=O)=O
0.123 | C[C@@H]1[C@@H](C)CCC[C@@H](CC(=O)N2CCN3CCOC[C@H]3C2)[C@@H]2CC[C@H]2CN2C[C@@]3(CCCc4cc(Cl)ccc43)COc3ccc(cc32)C(=O)NS1(=O)=O
